Values quoted from earlier work as cited in article PMC5571359, “Screening the Medicines for Malaria Venture Pathogen Box across Multiple Pathogens Reclassifies Starting Points for Open-Source Drug Discovery” (Antimicrobial Agents and Chemotherapy, 2017).
Where two headings read alike, the source gives them in different places.

Key:
HepG2 = conditions: cited from earlier work; for HepG2 PBox CC20 μMc: ref Pbox supporting information
P. falciparum ABS = conditions: cited from earlier work; for EC50: ChEMBL Data; for IC50: read-out: Pf 3D7 Pbox IC50
[1] = read-out: HepG2 PBox CC50 µM, HepG2 cytotoxicity, ref PBox supporting information
[2] = TCMDC, read-out: TCMDC (ref 93) EX50
[3] = Pf 3D7, ref Pathogen Box supporting information
[4] = NITD, read-out: NITD (ref 94) EC50
[5] = P. falciparum, read-out: TCMDC (ref 93) EX50
[6] = P. falciparum 3D7, ref PBox supporting information
[7] = P. falciparum, read-out: NITD (ref 94) EC50

Row | SMILES | EC50 (P. falciparum ABS; [2]) [nM] | IC50 (P. falciparum ABS; [3]) [nM] | other results
1 | CCCCS(=O)(=O)Nc1ccc2cnn(C)c2c1 [MMV687145] |  |  | CC50 (HepG2; [1]): > 100 µM
2 | COc1ccc(-c2nnc3ccc(-c4cccc(C(C)C)c4)cn23)cc1OC [MMV688313] |  |  | HepG2 PBox CC20 μMc (HepG2): 7500 nM
3 | O=C1[C@@H](Oc2ccccc2)[C@@H](c2ccc(Cl)cc2)N1CCn1cnc2c(NCc3ccccc3)ncnc21 [MMV688352] |  |  | CC50 (HepG2; read-out: HepG2 PBox CC50, HepG2, ref PBox supporting information): 3 µM
4 | CCN(CC)CCCN1CCN(C(=O)c2cccc(-c3noc(C(F)(F)F)n3)c2)CC1 [MMV022236] | 150 | 190 | 
5 | Cc1cc(Nc2ccncc2)n2nc(C)c(-c3ccccc3Cl)c2n1 [MMV016136] | 690 | 630 | 
6 | Cc1cc(NC(=O)c2ccc(S(=O)(=O)N(Cc3ccccc3)C(C)C)cc2)no1 [MMV007133] | 850 | 980 | EC50 (P. falciparum ABS; [4]): 2690 nM
7 | Cc1cc(OCC(=O)NCc2ccccc2)c2cc(Br)ccc2n1 [MMV687747] |  |  | CC50 (HepG2; [1]): 31 µM
8 | CNCCC(Oc1ccc(C(F)(F)F)cc1)c1ccccc1 (stereo not drawn) [MMV001561] |  |  | HepG2 PBox CC20 (HepG2; HepG2, ref PBox supporting information): 9000 nM
9 | COc1ccc(C2CC(c3cccs3)=NN2C(=O)c2ccco2)cc1OC (stereo not drawn) [MMV019234] | 170 | 300 | 
10 | COc1cccn2c(C(=O)N3CCCCC3)c(C(F)(F)F)nc12 [MMV1110498] |  |  | HepG2 PBox CC20 μMc (HepG2): >80000 nM
11 | CCS(=O)(=O)N(Cc1ccco1)Cc1cc2ccc(C)cc2nc1O [MMV676398] |  |  | HepG2 PBox CC20 μMc (HepG2): >80000 nM
12 | COc1cc(OC)cc(C(=O)NCC2Cc3cc(Cl)cc(-c4ccncc4)c3O2)c1 (stereo not drawn) [MMV007471] |  | 580 | EC50 (P. falciparum ABS; [4]): 370 nM
13 | CC(C)NCC(=O)Nc1cccc(C(=O)Nc2cccc(C(F)(F)F)c2)c1 [MMV020165] | 270 | 350 | 
14 | Cc1ccc2[nH]c3c(NCCN(C)C)ncnc3c2c1 [MMV006372] | 870 | 790 | EC50 (P. falciparum ABS; [4]): 170 nM
15 | Cc1cc(NCC(C)C)c2n[nH]c(-c3ccccc3)c2n1 [MMV021375] | 740 | 1400 | 
16 | CS(=O)(=O)c1cccc(-c2cnc3[nH]cc(-c4ccc(CCC(=O)O)cc4)c3c2)c1 [MMV026020] |  |  | EC50 (P. falciparum ABS; [5]): 630 nM; IC50 (P. falciparum ABS; [6]): 500 nM
17 | COc1ccc(-c2cncc3ccc(C(=O)NCCCn4ccnc4)nc23)cc1 [MMV020670] | 750 | 1080 | 
18 | c1ccc2c(c1)CN(CC1CC1)CC1(CCN(Cc3c[nH]c4cnccc34)CC1)O2 [MMV023183] | 900 | 610 | 
19 | CCC(NC(=O)c1ccccc1NC(=O)c1ccc(C)cc1)C(=O)OC (stereo not drawn) [MMV019551] | 760 | 160 | 
20 | O=C(Nc1cnc2ccccc2c1)c1cccc(-n2cnnn2)c1 [MMV084864] |  |  | EC50 (P. falciparum ABS; [7]): 170 nM; IC50 (P. falciparum ABS; [6]): 540 nM
21 | COc1ccccc1CNC(=O)c1cc(C2CC2)nc2c1cnn2C(C)C [MMV020517] | 1020 | 940 | 
22 | O=C(Nc1ccnc(-c2cccnc2)n1)c1cc(C(F)(F)F)cc(C(F)(F)F)c1 [MMV019838] | 830 | 1050 | 
23 | Cc1cc(C)n(-c2ccc(NC(=O)C3CCN(Cc4cnc(C)s4)CC3)cc2)n1 [MMV007625] |  | 780 | EC50 (P. falciparum ABS; [4]): 810 nM
24 | COc1cccc2c(C)nc(N=C(N)N)nc12 [MMV000907] |  | 1060 | EC50 (P. falciparum ABS; [4]): 290 nM
25 | CC(=O)Nc1ccc(NC(=O)c2cc(-c3cc(Cl)ccc3O)[nH]n2)cc1 [MMV676380] |  |  | EC50 (P. falciparum ABS; [5]): 180 nM; IC50 (P. falciparum ABS; [6]): 350 nM
26 | CN1CCN(c2nccc3[nH]c(-c4cccc(F)c4)cc23)CC1 [MMV393144] |  |  | IC50 (P. falciparum ABS; [6]): 1460 nM
27 | CNC(=O)c1cc(S(=O)(=O)N2CCN(c3ccccn3)CC2)cs1 [MMV020136] | 670 | 1110 | 
28 | FC(F)(F)c1cnc(Sc2nnc(-c3ccncc3)o2)c(Cl)c1 [MMV011765] | 270 | 270 | EC50 (P. falciparum ABS; [4]): 1870 nM

Row | SMILES | EC50 (P. falciparum ABS; [2]) [nM] | IC50 (P. falciparum ABS; [3]) [nM] | other results
29 | O=C(C(Cc1c[nH]c2ccccc12)NS(=O)(=O)c1ccc(Cl)cc1)N1CCCCC1 (stereo not drawn) [MMV085210] |  |  | EC50 (P. falciparum ABS; [7]): 720 nM; IC50 (P. falciparum ABS; [6]): > 2000 nM
30 | Cc1cc(Cl)c(S(=O)(=O)N2CCCC2)cc1OCC(=O)NC1CCCCC1 [MMV006833] |  | 300 | EC50 (P. falciparum ABS; [4]): 100 nM
31 | CC(C(=O)N1CCCC1)N1CCN(S(=O)(=O)c2ccc(C(C)(C)C)cc2)CC1 (stereo not drawn) [MMV020291] | 640 | 900 | 
32 | COc1ccc(Cl)cc1NC(=O)CN(C)C(=O)c1cnn(-c2ccccc2)n1 [MMV020710] | 230 | 240 | 
33 | Cc1nn(C)cc1C(C)Nc1nncc(-c2ccc(C(F)(F)F)cc2)n1 (stereo not drawn) [MMV019993] | 250 | 120 | 
34 | CC1CCCN(C(=O)C(C)Nc2cc(Cl)ccc2N2CCOCC2)C1 (stereo not drawn) [MMV020388] | 320 | 520 | 
35 | CC(C)(C)CN1C(=O)C(c2ccccc2)(c2ccccc2)N=C1N [MMV026550] |  |  | EC50 (P. falciparum ABS; [5]): 520 nM; IC50 (P. falciparum ABS; [6]): 800 nM
36 | O=C(c1ccc(NCCO)cc1)C1C[C@H]1c1ccc(Cl)cc1 (stereo partly drawn) [MMV676877] |  |  | IC50 (P. falciparum ABS; [6]): 660 nM
37 | CC(C)(C)c1cc(C(=O)Nc2cccnc2)cc(C(=O)Nc2cccnc2)c1 [MMV020982] | 760 | 900 | 
38 | CCOc1ccccc1C(=O)Nc1cccc(-c2nc3ncccn3c2C)c1 [MMV019790] | 850 | 1270 | 
39 | Cc1ccc2cc(C3NC(=O)c4ccccc4N3)c(Cl)nc2c1 (stereo not drawn) [MMV019807] | 950 | 1660 | 
40 | CC(C)(C)c1cc(C(=O)N2CCN(c3nccnc3C#N)CC2)n(Cc2ccccc2)n1 [MMV023949] | 760 | 600 | 
41 | CCCNC(=O)N1CCC2(CC1)CC(=O)c1cc(C)ccc1O2 [MMV085230] |  |  | EC50 (P. falciparum ABS; [7]): 870 nM; IC50 (P. falciparum ABS; [6]): 2060 nM
42 | CCc1cc(=O)n(C)c(SC(C)C(=O)Nc2ccc(F)cc2)n1 (stereo not drawn) [MMV688980] |  |  | EC50 (P. falciparum ABS; [7]): 760 nM; IC50 (P. falciparum ABS; [6]): 1970 nM
43 | COc1ccc(CCN2CCC(NCc3cccc(N(C)C)c3)CC2)cc1 [MMV011511] | 1320 | 1200 | EC50 (P. falciparum ABS; [4]): 810 nM
44 | O=C(Nc1cccc(-c2ccc(NCCCN3CCCC3)nc2)c1)c1ccccc1 [MMV023953] | 870 | 850 | 
45 | COc1cc2ncnc(NC3CCN(Cc4ccccc4)CC3)c2cc1OC [MMV006741] |  | 620 | EC50 (P. falciparum ABS; [4]): 400 nM
46 | O=C(NC1CC1)c1ccc(CSCc2ccccc2Cl)o1 [MMV007803] |  | 1420 | EC50 (P. falciparum ABS; [4]): 500 nM
47 | CN1CCN(S(=O)(=O)c2ccc(-c3ccc4c(Nc5ccc6nn[nH]c6c5)ccnc4c3)cc2)CC1 [MMV687246] |  |  | IC50 (P. falciparum ABS; [6]): 420 nM
48 | CCCS(=O)(=O)N1CCC(CO)(Cc2ccccc2C(F)(F)F)CC1 [MMV001059] | 890 | 1090 | EC50 (P. falciparum ABS; [4]): 1250 nM; EC50 (P. falciparum ABS; St Jude, read-out: St JUDE (ref 95) EC50): 3370 nM
49 | COc1ccccc1C(C)NCC(=O)Nc1cc(C(F)(F)F)ccc1Cl (stereo not drawn) [MMV020321] | 780 | 1380 | 
50 | CC(C)C(C(=O)Nc1ccc(S(=O)(=O)N(C)C)cc1)c1ccc(Cl)cc1 (stereo not drawn) [MMV020391] | 940 | 930 | 
51 | Cc1noc(C)c1C(=O)N1CCCC(c2[nH]c3c(C)cccc3c2-c2ccncc2)C1 (stereo not drawn) [MMV020623] | 840 | 940 | 
52 | Cc1cc2ccccc2n1CC(=O)N1CC(C(=O)N2CCCCC2)Oc2ccccc21 (stereo not drawn) [MMV020520] | 900 | 1080 | 
53 | CCn1cnc2c(Nc3cc(F)cc(F)c3)nc(C#N)nc21 [MMV676881] |  |  | IC50 (P. falciparum ABS; [6]): 900 nM
54 | O=S(=O)(c1ccc(Cl)cc1)N1CCN(C(=S)NCc2ccco2)CC1 [MMV000858] |  | 1200 | EC50 (P. falciparum ABS; [4]): 970 nM
55 | OCc1ccc(-c2cncc(Nc3cccc(Cl)c3)c2)cc1 [MMV026468] |  |  | EC50 (P. falciparum ABS; [5]): 74 nM; IC50 (P. falciparum ABS; [6]): 33.5 nM
